Experiments:
insulin mRNA in pancreas = test: Quantification of expression of insulin mRNA in pancreas (real-time quantitative PCR); assay type: in vivo; details: KKAy mice after feeding; ratio to GAPDH mRNA; control group 5.12×10^4 (100%), normal mice 11%
Experimental: (§4) According to the conventional method, RNA was extracted from the cells of pancreas and kidney. cDNA was prepared by a reverse transcription reaction from the RNA and quantitative determination of expression amount of mRNA related to diabetes was carried out by means of a real-time quantitative PCR. In the following experiments, quantitative determination of the expression amount of mRNA was analyzed using Mx 3000P (manufactured by Stratagene). In all cases, condition for the PCR was that a hot start was conduced at 95° C. for 10 minutes and then a cycle comprising 95° C. for 30 seconds, 60° C. for 1 minute and 72° C. for 30 seconds was repeated for 45 times. At the same time, dilution rows of five stages were prepared using a control RNA of 5 ng/μl concentration and expression amount of RNA was determined from the resulting standard curve. As to a reagent for the PCR, Brilliant SYBR Green QPCR Master Mix (manufactured by Stratagene) was used in accordance with a protocol for its manual for use. […] Incidentally, expression amount of mRNA of a test substance in each test was indicated in terms of a ng ratio of the commonly expressed GAPDH enzyme to the amount of mRNA (internal standard).
Expression amount of insulin mRNA in the pancreas was measured by the PCR using the following primers.

[1] = system: adiponectin mRNA in kidney; test: Quantification of expression of adiponectin mRNA in kidney (real-time quantitative PCR); assay type: in vivo; details: KKAy mice after feeding; ratio to GAPDH mRNA; control group 2.53×10^−3 (100%)
Experimental: as §4
Expression amount of adiponectin mRNA in kidney was measured by the PCR using the following primers.

[2] = system: adiponectin mRNA in pancreas; test: Quantification of expression of adiponectin mRNA in pancreas (real-time quantitative PCR); assay type: in vivo; details: KKAy mice after feeding; ratio to GAPDH mRNA; control group 1.07 (100%), normal mice 145%
Experimental: as §4
Expression amount of adiponectin mRNA was measured by the PCR using the following primers.

plasma insulin = test: Plasma insulin concentration in KKAy mice at end of feeding; assay type: in vivo; details: 56th day, control group 7.0 ng/ml (100%), normal mice 16%
Experimental: (§1) Firstly, four kinds of feeds were prepared for animal tests.
(§2) Feeding of the mice of those four groups was conducted in a single feeding manner and water was freely taken by each mouse.
(§3) Blood glucose level during the feeding period (until the 51st day) and blood glucose level, blood insulin concentration, blood leptin concentration and adiponectin concentration were measured when the feeding finished (on the 56th day) whereby the action of each ingredient on the mice was checked. Further, in order to compare with the diabetic model mice, normal mice (eight males) of the same 13 weeks age were used as a normal group and their blood was collected upon finishing the feeding followed by measuring each of the above concentrations.
Concentration of insulin in plasma was measured upon finishing the feeding (on the 56th day).

PPAR-γ mRNA in pancreas = test: Quantification of expression of PPAR-γ mRNA in pancreas (real-time quantitative PCR); assay type: in vivo; details: KKAy mice after feeding; ratio to GAPDH mRNA; control group 0.28 (100%), normal mice 161%
Experimental: as §4
The expression amount of PPAR-γ mRNA was measured by the PCR using the following primer.

plasma leptin = test: Plasma leptin concentration in KKAy mice at end of feeding; assay type: in vivo; details: 56th day, control group 7.3 ng/ml (100%), normal mice 15%
Experimental: as §1, §2, §3
Concentration of leptin was also measured upon finishing the feeding (on the 56th day).

PPAR-α mRNA in kidney = test: Quantification of expression of PPAR-α mRNA in kidney (real-time quantitative PCR); assay type: in vivo; details: KKAy mice after feeding; ratio to GAPDH mRNA; control group 0.532 (100%)
Experimental: as §4
Expression amount of PPAR-α mRNA in kidney was measured by the PCR using the following primers.

PPAR-α mRNA in pancreas = test: Quantification of expression of PPAR-α mRNA in pancreas (real-time quantitative PCR); assay type: in vivo; details: KKAy mice after feeding; ratio to GAPDH mRNA; control group 0.61 (100%), normal mice 123%
Experimental: as §4
The expression amount of the PPAR-α mRNA was measured by the PCR using the following primers.

plasma adiponectin = test: Plasma adiponectin concentration in KKAy mice at end of feeding; assay type: in vivo; details: 56th day, control group 1.1 μg/ml (100%), normal mice 46%
Experimental: as §1, §2, §3
It has been said that a plasma adiponectin which is an anti-antidiabetic and anti-arteriosclerotic factor derived from fat tissues enhances insulin sensitivity and improves insulin resistant diabetes due to its action of activating the fatty acid oxidation in systemic muscles and reducing the neutral fat amount (Iichiro Shimomura, Toru Funahashi and Yuji Matsuzawa: Adiponectin—Anti-antidiabetic and anti-arteriosclerotic factor derived from fat tissues, Molecular Medicine, Vol. 39, No. 4, 416-423, 2002). […] The concentration of adiponectin was also measured upon finishing the feeding (on the 56th day).

PPAR-γ mRNA in kidney = test: Quantification of expression of PPAR-γ mRNA in kidney (real-time quantitative PCR); assay type: in vivo; details: KKAy mice after feeding; ratio to GAPDH mRNA; control group 0.56 (100%)
Experimental: as §4
Expression amount of PPAR-γ mRNA in kidney which adjusts adiponectin and its expression promoting the fatty acid combustion in tissues thereof was measured by the PCR using the following primers.

[3] = system: PPARγ in bone marrow cells of femur; test: Expression of PPARγ mRNA in bone marrow cells of femur (real-time quantitative PCR); assay type: in vivo; details: KKAy mice after feeding; control group 5.05×10^−2 (100%)
[4] = system: spontaneously obese insulin-resistant diabetic mice (KKAy); test: Blood glucose level in KKAy mice fed test feeds; assay type: in vivo; details: for blood glucose level upon finishing the feeding, % of control group: 56th day, control group 306 mg/dl (100%), normal mice 34%; for blood glucose level, mean value: tail vein blood
Experimental: as §1, §2, §3
During the feeding period for the two months, blood was collected from tail vein of the mice upon the initiation of the feeding (on the 0th day) and on the 15th, 37th and 51st days from the initiation of the feeding and the blood glucose level therein was measured.

[5] = system: patients suffering from osteoporosis; details: 32 osteoporosis patients, daily dose 6.4 g (1.7 g as Sr), three months to three years; cited from earlier work
[6] = 15th day of feeding, control group 214
[7] = 37th day of feeding, control group 386
[8] = 51st day of feeding, control group 339
[9] = initiation of feeding (0th day), control group 167

Row | Structure (SMILES) | expression amount of insulin mRNA in pancreas, % of control group (insulin mRNA in pancreas) [%] | expression amount of adiponectin mRNA in kidney, % of control group [1] [%] | expression amount of adiponectin mRNA in pancreas, % of control group [2] [%] | plasma insulin concentration, % of control group (plasma insulin) [%] | expression amount of PPAR-γ mRNA in pancreas, % of control group (PPAR-γ mRNA in pancreas) [%] | plasma leptin concentration, % of control group (plasma leptin) [%] | expression amount of PPAR-α mRNA in kidney, % of control group (PPAR-α mRNA in kidney) [%] | expression amount of PPAR-α mRNA in pancreas, % of control group (PPAR-α mRNA in pancreas) [%] | plasma adiponectin concentration, % of control group (plasma adiponectin) [%] | expression amount of PPAR-γ mRNA in kidney, % of control group (PPAR-γ mRNA in kidney) [%] | expression amount of PPARγ in bone marrow cells of femur, % of control group [3] [%] | blood glucose level upon finishing the feeding, % of control group [4] [%] | blood glucose level, mean value [4, 6] [mg/dL] | blood glucose level, mean value [4, 7] [mg/dL] | blood glucose level, mean value [4, 8] [mg/dL] | blood glucose level, mean value [4, 9] [mg/dL] | patients in whom improvement was achieved [5] [%]
1 | [Cl-].[Cl-].[Sr+2] [Sr group, strontium chloride] | 64 | 123 | 117 | 70 | 181 | 71 | 169 | 104 | 42 | 136 | 65 | 55 | 200 | 288 | 247 | 150 | –
2 | CC(O)C(=O)[O-].CC(O)C(=O)[O-].[Sr+2] (stereo not drawn) [strontium lactate] | – | – | – | – | – | – | – | – | – | – | – | – | – | – | – | – | 84
3 | O=[Si]([O-])[O-].[Na+].[Na+] [Si group, sodium metasilicate] | 9 | 135 | 128 | 68 | 125 | 76 | 171 | 116 | 70 | 141 | 50 | 86 | 231 | 268 | 235 | 156 | –
